Assay results published in patent US20240124442A1, “TRICYCLIC-AMIDO-BICYCLIC PRMT5 INHIBITORS” (AMGEN INC., priority 2021, published 2024).

Columns and labels:
HCT116 WT cells = assay: HCT116 WT (parent) cell line proliferation / cell viability (CellTiter-Glo, 6 days); type: cell-based; conditions: Homo sapiens, HCT-116, 144 h, 6 days treatment
Summary of the method: (§1)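 Anti-proliferative IC50s were derived from CellTiter-Glo signal in HCT116 parent and MTAP-null cells after six days on compound. Serial dilutions reached top concentrations of 1, 10 or 50 μM, with DMSO-only wells as control.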

HCT116 MTAP null cells = assay: HCT116 MTAP null cell line proliferation / cell viability (CellTiter-Glo, 6 days); type: cell-based; conditions: 144 h; HCT116 MTAP null cells, 6 days treatment, CellTiter-Glo cell viability; read-out: HCT-116 MTAP null IC50
Summary of the method: as §1

Which IC50 (HCT116 WT cells) does the source give for `CN(C(=O)c1ccc2nc(N)c3c(c2c1)CSC3)[C@@H]1COc2cc(C(F)(F)F)ccc21` [Example 219, 4-amino-N-methyl-N-((3S)-6-(trifluoromethyl)-2,3-dihydro-1-benzofuran-3-yl)-1,3-dihydrothieno[3,4-c]quinoline-8-carboxamide] here?
The IC50 was 2770 nM.

What about the IC50 (HCT116 MTAP null cells) of the same compound?
The IC50 was 105 nM.

With `CN(C(=O)c1ccc2nc(N)c3ccncc3c2c1)[C@@H]1COc2cc(C(F)(F)F)ccc21` [Example 220, 5-amino-N-methyl-N-((3S)-6-(trifluoromethyl)-2,3-dihydro-1-benzofuran-3-yl)-benzo[c][2,6]naphthyridine-9-carboxamide] as the compound, how does the IC50 (HCT116 WT cells) read?
Its IC50 is 432 nM.

And the IC50 (HCT116 MTAP null cells)?
Its IC50 is 18 nM.

How did the IC50 (HCT116 WT cells) turn out when `CN(C(=O)c1ccc2nc(N)c3ncncc3c2c1)[C@@H]1COc2cc(C(F)(F)F)ccc21` [Example 221, 5-amino-N-methyl-N-((3S)-6-(trifluoromethyl)-2,3-dihydro-1-benzofuran-3-yl)pyrimido-[4,5-c]quinoline-9-carboxamide] was run?
The IC50 was 4290 nM.

And the IC50 (HCT116 MTAP null cells)?
The IC50 was 590 nM.

What does the source list for `Cc1nccc2c(N)nc3ccc(C(=O)N(C)[C@@H]4COc5cc(C(F)(F)F)ccc54)cc3c12` [Example 222, 5-amino-N,1-dimethyl-N-((3S)-6-(trifluoromethyl)-2,3-dihydro-1-benzofuran-3-yl)benzo[c][2,6]-naphthyridine-9-carboxamide]?
IC50 (HCT116 WT cells): 3910 nM; IC50 (HCT116 MTAP null cells): 280 nM

What does the source list for `CN(C(=O)c1cc2c(cn1)nc(N)c1ccncc12)[C@@H]1COc2cc(C(F)(F)F)ccc21` [Example 223, 5-amino-N-methyl-N-((3S)-6-(trifluoromethyl)-2,3-dihydro-1-benzofuran-3-yl)pyrido[4,3-c][1,7]naphthyridine-9-carboxamide]?
IC50 (HCT116 WT cells): 437 nM; IC50 (HCT116 MTAP null cells): 23 nM

Which IC50 (HCT116 WT cells) does the source give for `CN(C(=O)c1cc2c(cn1)nc(N)c1ncncc12)[C@@H]1COc2cc(C(F)(F)F)ccc21` [Example 224, 5-amino-N-methyl-N-((3S)-6-(trifluoromethyl)-2,3-dihydro-1-benzofuran-3-yl)pyrimido-[4,5-c][1,7]naphthyridine-9-carboxamide] here?
Its IC50 is 3600 nM.

What about the IC50 (HCT116 MTAP null cells) of the same compound?
Its IC50 is 424 nM.

For `Cc1noc2c1c(N)nc1cc(F)c(C(=O)N(C)[C@@H]3COc4cc(C(F)(F)F)ccc43)cc12` [Example 225, 4-amino-7-fluoro-N,3-dimeth-yl-N-((3S)-6-(trifluoromethyl)-2,3-dihydro-1-benzofuran-3-yl)[1,2]oxazolo[4,5-c]quin-oline-8-carboxamide], which IC50 (HCT116 WT cells) is on record?
Its IC50 is 4940 nM.

What about the IC50 (HCT116 MTAP null cells) of the same compound?
The IC50 was 403 nM.

How did the IC50 (HCT116 WT cells) turn out when `CN(C(=O)c1ccc2nc(N)c3cnn(C)c3c2c1)[C@@H]1COc2cc(C(F)(F)F)ncc21` [Example 227, 4-amino-N,1-dimethyl-N-((3S)-6-(trifluoromethyl)-2,3-dihydrofuro[3,2-c]pyridin-3-yl)-1H-pyrazolo[4,3-c]-quinoline-8-carboxamide] was run?
The IC50 was 1480 nM.

And the IC50 (HCT116 MTAP null cells)?
The IC50 was 19 nM.

For `CCN(C(=O)c1ccc2nc(N)c3cnn(C)c3c2c1)[C@H]1COc2cc(C(F)(F)F)ccc21` [Example 229, 4-amino-N-ethyl-1-methyl-N-((3R)-6-(trifluoromethyl)-2,3-dihydro-1-benzofuran-3-yl)-1H-pyrazolo[4,3-c]quinoline-8-carboxamide], which IC50 (HCT116 WT cells) is on record?
Its IC50 is 7740 nM.

And the IC50 (HCT116 MTAP null cells)?
The IC50 was 265 nM.

With `CN(C(=O)c1ccc2nc(N)c3cnn(C)c3c2c1)[C@@H]1COc2cc(OC(F)(F)F)ccc21` [Example 230, 4-amino-N,1-dimethyl-N-((3S)-6-(trifluoromethoxy)-2,3-dihydro-1-benzofuran-3-yl)-1H-pyrazolo[4,3-c]quinoline-8-carboxamide] as the compound, how does the IC50 (HCT116 WT cells) read?
Its IC50 is 530 nM.

What about the IC50 (HCT116 MTAP null cells) of the same compound?
The IC50 was 7 nM.

Which results are given for `CN(C(=O)c1ccc2nc(N)c3cnn(C)c3c2c1)[C@@H]1COc2cc(C(F)(F)F)cc(Cl)c21` [Example 231, 4-amino-N-((3S)-4-chloro-6-(trifluoromethyl)-2,3-dihydro-1-benzofuran-3-yl)-N,1-dimethyl-1H-pyrazolo[4,3-c]-quinoline-8-carboxamide]?
IC50 (HCT116 WT cells): 2060 nM; IC50 (HCT116 MTAP null cells): 215 nM

What does the source list for `CN(C(=O)c1ccc2nc(N)c3cnn(C)c3c2c1)[C@H]1COc2cc(C(F)(F)F)cc(Cl)c21` [Example 232, 4-amino-N-((3R)-4-chloro-6-(trifluoromethyl)-2,3-dihydro-1-benzofuran-3-yl)-N,1-dimethyl-1H-pyrazolo[4,3-c]-quinoline-8-carboxamide]?
IC50 (HCT116 WT cells): 2490 nM; IC50 (HCT116 MTAP null cells): 222 nM

`CN(C(=O)c1ccc2nc(N)c3cnn(C)c3c2c1)[C@@H]1COc2cc(Br)ccc21` [Example 234, 4-amino-N-((3S)-6-bromo-2,3-dihydro-1-benzofuran-3-yl)-N,1-dimethyl-1H-pyrazolo[4,3-c]quinoline-8-carboxamide] was tested. Which IC50 (HCT116 WT cells) did it give?
The IC50 was 613 nM.

And the IC50 (HCT116 MTAP null cells)?
Its IC50 is 8 nM.

`CN(C(=O)c1ccc2nc(N)c3cnn(C)c3c2c1)[C@@H]1COc2cc(Br)cnc21` [Example 235, 4-amino-N-((3S)-6-bromo-2,3-dihydrofuro[3,2-b]pyridin-3-yl)-N,1-dimethyl-1H-pyrazolo[4,3-c]quinoline-8-carboxamide] was tested. Which IC50 (HCT116 WT cells) did it give?
The IC50 was 10000 nM.

And the IC50 (HCT116 MTAP null cells)?
The IC50 was 219 nM.

Which results are given for `CN(C(=O)c1ccc2nc(N)c3cnn(C)c3c2c1)[C@H]1COc2cc(Br)cnc21` [Example 236, 4-amino-N-((3R)-6-bromo-2,3-dihydrofuro[3,2-b]pyridin-3-yl)-N,1-dimethyl-1H-pyrazolo[4,3-c]quinoline-8-carboxamide]?
IC50 (HCT116 WT cells): 24200 nM; IC50 (HCT116 MTAP null cells): 786 nM

With `CN(C(=O)c1cc2c(cn1)nc(N)c1cnn(C)c12)[C@@H]1COc2cc(C(F)(F)F)ccc21` [Example 237, 4-amino-N,1-dimethyl-N-((3S)-6-(trifluoromethyl)-2,3-dihydro-1-benzofuran-3-yl)-1H-pyr-azolo[4,3-c][1,7]naphthyridine-8-carboxamide] as the compound, how does the IC50 (HCT116 WT cells) read?
Its IC50 is 192 nM.

And the IC50 (HCT116 MTAP null cells)?
Its IC50 is 12 nM.

What does the source list for `CN(C(=O)c1cc2c(cn1)nc(N)c1cnn(C)c12)[C@@H]1COc2cc(OC(F)(F)F)ccc21` [Example 239, 4-amino-N,1-dimethyl-N-((3S)-6-(trifluoromethoxy)-2,3-dihydro-1-benzofuran-3-yl)-1H-pyrazolo[4,3-c][1,7]-naphthyridine-8-carboxamide]?
IC50 (HCT116 WT cells): 168 nM; IC50 (HCT116 MTAP null cells): 10 nM

For `CN(C(=O)c1cc2c(cn1)nc(N)c1cnn(C)c12)[C@@H]1COc2cc(S(F)(F)(F)(F)F)ccc21` [Example 240, 4-amino-N,1-dimethyl-N-((3S)-6-(pentafluoro-lambda~6~-sulfanyl)-2,3-dihydro-1-benzofuran-3-yl)-1H-pyrazolo[4,3-c][1,7]naph-thyridine-8-carboxamide], which IC50 (HCT116 WT cells) is on record?
The IC50 was 250 nM.

And the IC50 (HCT116 MTAP null cells)?
The IC50 was 13 nM.

How did the IC50 (HCT116 WT cells) turn out when `CN(C(=O)c1cc2c(cn1)nc(N)c1cnn(C)c12)[C@@H]1COc2cc(-c3cnn(C(F)(F)F)c3)ccc21` [Example 241, 4-amino-N,1-dimethyl-N-((3S)-6-(1-(trifluoromethyl)-1H-pyrazol-4-yl)-2,3-dihydro-1-benzofuran-3-yl)-1H-pyr-azolo[4,3-c][1,7]naphthyridine-8-carboxamide] was run?
Its IC50 is 388 nM.

And the IC50 (HCT116 MTAP null cells)?
Its IC50 is 9 nM.

For `CCN(C(=O)c1cc2c(cc1F)nc(N)c1cnn(C)c12)[C@@H]1COc2cc(C(F)(F)F)ccc21` [Example 243, 4-amino-N-ethyl-7-fluoro-1-methyl-N-((3S)-6-(trifluoro-methyl)-2,3-dihydro-1-benzo-furan-3-yl)-1H-pyrazolo[4,3-c]-quinoline-8-carboxamide], which IC50 (HCT116 WT cells) is on record?
The IC50 was 82 nM.

What about the IC50 (HCT116 MTAP null cells) of the same compound?
Its IC50 is 9 nM.

With `CCN(C(=O)c1cc2c(cc1F)nc(N)c1cnn(C)c12)[C@H]1COc2cc(C(F)(F)F)ccc21` [Example 244, 4-amino-N-ethyl-7-fluoro-1-methyl-N-((3R)-6-(trifluoro-methyl)-2,3-dihydro-1-benzo-furan-3-yl)-1H-pyrazolo[4,3-c]quinoline-8-carboxamide] as the compound, how does the IC50 (HCT116 WT cells) read?
Its IC50 is 7440 nM.

And the IC50 (HCT116 MTAP null cells)?
Its IC50 is 182 nM.

How did the IC50 (HCT116 WT cells) turn out when `CN(C(=O)c1cc2c(cc1F)nc(N)c1cnn(C)c12)[C@@H]1COc2cc(-c3cnn(C(F)(F)F)c3)ccc21` [Example 247, 4-amino-7-fluoro-N,1-dimethyl-N-((3S)-6-(1-(trifluoromethyl)-1H-pyrazol-4-yl)-2,3-dihydro-1-benzofuran-3-yl)-1H-pyrazolo[4,3-c]quinoline-8-carboxamide] was run?
The IC50 was 304 nM.

And the IC50 (HCT116 MTAP null cells)?
Its IC50 is 5 nM.

How did the IC50 (HCT116 WT cells) turn out when `CN(C(=O)c1cc2c(cc1Cl)nc(N)c1cnn(C)c12)[C@@H]1COc2cc(-c3cnn(C(F)(F)F)c3)ccc21` [Example 249, 4-amino-7-chloro-N,1-dimethyl-N-((3S)-6-(1-(trifluoromethyl)-1H-pyrazol-4-yl)-2,3-dihydro-1-benzo-furan-3-yl)-1H-pyrazolo[4,3-c]quinoline-8-carboxamide] was run?
The IC50 was 66 nM.

What about the IC50 (HCT116 MTAP null cells) of the same compound?
The IC50 was 3 nM.

For `Cc1cc2nc(N)c3cnn(C)c3c2cc1C(=O)N(C)[C@@H]1COc2cc(C(F)(F)F)ccc21` [Example 250, 4-amino-N,1,7-trimethyl-N-((3S)-6-(trifluoromethyl)-2,3-dihydro-1-benzofuran-3-yl)-1H-pyrazolo[4,3-c]quinoline-8-carboxamide], which IC50 (HCT116 WT cells) is on record?
The IC50 was 46 nM.

And the IC50 (HCT116 MTAP null cells)?
The IC50 was 2 nM.

Which results are given for `Cc1nc2nc(N)c3cnn(C)c3c2cc1C(=O)N(C)[C@@H]1COc2cc(C(F)(F)F)ccc21` [Example 251, 4-amino-N,1,7-trimethyl-N-((3S)-6-(trifluoromethyl)-2,3-dihydro-1-benzofuran-3-yl)-1H-pyrazolo[4,3-c][1,8]-naphthyridine-8-carboxamide]?
IC50 (HCT116 WT cells): 217 nM; IC50 (HCT116 MTAP null cells): 7 nM

For `Cc1nc2nc(N)c3cnn(C)c3c2cc1C(=O)N(C)[C@@H]1COc2cc(Cl)c(Cl)cc21` [Example 252, 4-amino-N-((3S)-5,6-dichloro-2,3-dihydro-1-benzofuran-3-yl)-N,1,7-trimethyl-1H-pyrazolo[4,3-c][1,8]naphthyr-idine-8-carboxamide], which IC50 (HCT116 WT cells) is on record?
The IC50 was 234 nM.

And the IC50 (HCT116 MTAP null cells)?
The IC50 was 19 nM.

`CN(C(=O)c1cc2c(cc1C(F)(F)F)nc(N)c1cnn(C)c12)[C@@H]1COc2cc(C(F)(F)F)ccc21` [Example 253, 4-amino-N,1-dimethyl-7-(trifluoromethyl)-N-((3S)-6-(trifluoromethyl)-2,3-dihydro-1-benzofuran-3-yl)-1H-pyrazolo[4,3-c]quinoline-8-carboxamide] was tested. Which IC50 (HCT116 WT cells) did it give?
Its IC50 is 2100 nM.

And the IC50 (HCT116 MTAP null cells)?
The IC50 was 35 nM.
